Assay results: patent publication US20230144855A1, “METHODS AND COMPOSITIONS FOR INDUCING FETAL HEMOGLOBIN” (Flagship Pioneering Innovations VI, LLC, priority 2021, published 2023)
“Also recorded” adds a separate entry of the source.

Columns and labels:
Format in all cases: cell-based, human
[1] = tested on: CD34+ hematopoietic stem and progenitor cells (HSPCs); experiment: Percentage HbF by HPLC / ion-exchange chromatography in in vitro derived erythrocytes; conditions: Day 14; HU 50 μM, Perturbagen 1081 0.1 μM; n=4-5
Experimental: (§1) Briefly, mobilized peripheral blood (mPB), or bone marrow (BM) derived CD34+ hematopoietic stem and progenitor cells (HSPCs) were thawed and cultured in Hematopoietic stem cell expansion media (Table 7) from Day −4 to Day 0 following by 3-stage in vitro erythroid differentiation (Table 8). Specifically, cells were cultured in erythroid expansion media (phase 1) from Day 0-6, followed by differentiation media (phase 2) between Day 7-10, and culminating with incubation in erythroid maturation media (phase 3) from Day 10-18. Perturbagens reconstituted in DMSO (or appropriate solvent) were added starting at day −2 (corresponding to a stage of CD34+ hematopoietic progenitors). […] As part of the analysis, the expansion (fold growth), viability, and erythroid maturation was measured throughout the course of differentiation. Early erythroid induction was determined by flow cytometry using a six-antibody panel (CD34, CD38, CD36, CD71, CD41, CD235a) (Table 9). Similarly, late erythroid maturation was determined by flow cytometry using a four-antibody panel (Table 10) (CD71, CD235a, CD233, CD49d) tracking increased CD233 expression, with a concomitant loss of CD49d expression, and a shift in CD71^Hi to CD71^low erythroid population (CD235a+) over 18 days (FIG. 2). […]

[2] = tested on: CD34+ hematopoietic stem and progenitor cells (HSPCs); experiment: Flow cytometry assay of percentage of HbF expressing cells (F-cells) after in vitro erythroid differentiation
Experimental: as §1

mPB CD34+ cells = experiment: scRNA-seq of CD34+ cells treated with HbF inducers (trajectories, gene signatures); conditions: for Pseudo-trajectory associated with high levels of HBG1/HBG2 expression: Leiden clustering / gene module analysis of HbF inducers
Experimental: To understand the mechanism/cell behavior driving fetal hemoglobin induction, a number of known HbF inducers were evaluated and their signature was elucidated by scRNA-seq. In brief, mPB CD34+ cells were thawed, cultured and treated with selected HbF inducers (Table 11) as described in Example 2 and subjected to single cell gene expression profiling (GEP) at 5 time points capturing the induction of erythroid differentiation from a hematopoietic stem cell progenitor. For sequencing, 10,000 cells (1000 cells/perturbation) were loaded into a single channel of a Chromium Next GEM Chip G and partitioned into droplets with gel beads using a Chromium controller per time point. After emulsion droplets were formed and collected, reverse transcription reactions were incubated at 53° C. for 45 min.
A dimensionality-reduced representation of the count matrix was embedded using UMAP, clustered using Leiden clustering and annotated using differential expression testing (Wilcoxon test) and comparisons to established marker genes. […] Based on these two trajectories, distinct signatures were generated for each transition and a list predictions were made towards each cell state.
Based on the unique/novel cell state (CD34+/CD41^Low+/CD235a+) induced by HU treatment of human hematopoietic stem cell progenitors Applicant postulated that this cell state was reminiscent/analogous to a stress erythropoiesis cell state previously defined in mice but not well characterized in human. […] To evaluate whether HU was inducing a stress erythropoiesis cells state and whether this cell state was responsive to glucocorticoids, the effect of dexamethasone (Dex) was evaluated in the context of HU treatment.
Perturbagen 1081 induced predicted gene signature associated with fetal hemoglobin induction. […] Adult human CD34+ progenitors were treated with Perturbagen 1081 and other known HbF inducers and subjected to scRNA-seq. […] Analysis of Perturbagen 1081 induced gene signature validated the fetal erythropoiesis signature predicted using a computational predictive models (FIG. 16C).

CD34+ HSPCs = experiment: Flow cytometry of the CD34+/CD41Low+/CD235a+ cell state; conditions: HU 50 uM, day 3 mPB CD34+
Experimental: Therefore, in this example, CD34+ HSPCs are cultured 4 days in stem cell maintenance media (days −4 through 0) then switched to the three phases of erythroid differentiation media. Phase 1, erythroid expansion media (days 0 through 6), Phase 2 erythroid differentiation media (days 7 through 10) and Phase 3 erythroid maturation media (days 10 through 18).

SMILES | HbF induced, HPLC analysis of in vitro derived erythrocytes [1] | Number of F-cells with HU treatment ([2]; HU 50 uM on CD34+ HSPCs before erythroid differentiation) | Pseudo-trajectory associated with high levels of HBG1/HBG2 expression (mPB CD34+ cells) | Expression of the glucocorticoid receptor (NR3C1) (mPB CD34+ cells; scRNA-seq of HU and HU+Dex conditions) | CD34+/CD41Low+/CD235a+ cell state (CD34+ HSPCs) | F-cell data, glucocorticoid agonist combined with HU (absolute change, fold change) ([2]; combination with HU)
NC(=O)NO [HU, hydroxyurea] | 17.16%+4.78 | increased number of F-cells | HU-HbF trajectory | increases the expression of the glucocorticoid receptor (NR3C1); also recorded: induction of NR3C1 | a novel cell state defined by CD34+/CD41^Low+/CD235a+(FIG. 6A) was observed; also recorded: emergence of a cell population defined by CD34+CD41lowCD235a+ expression | 
Cc1ccc2c(NC[C@](O)(CC(C)(C)c3cc(F)cc4c3OCC4)C(F)(F)F)cccc2n1 [Mapracorat] |  |  |  |  |  | synergy with HU
Nc1cccc2c1C(=O)N(C1CCC(=O)NC1=O)C2=O (stereo not shown) [Pomalidomine] |  |  | canonical-HbF trajectory |  |  | 
